Source: patent US11925629B2, “Heterocyclic inhibitors of ERK1 and ERK2 and their use in the treatment of cancer” (Asana Biosciences, LLC, priority 2015, dated 2024)

Key:
Format in all cases: cell-based, human
[1] = test system: HCT116 (colorectal carcinoma, K Ras G13D) cells; assay: Cell proliferation (Alamar Blue) assay, HCT116; details: Homo sapiens, HCT-116, HCT116 cells
How it was run: (§1)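 Cells seeded at 5000/well and allowed 16-24 h at 37° C./5% CO2, then exposed to 3-fold serial dilutions (typically 0.0005 to 10 uM) for 72 h. Viability read by Alamar Blue (1×, 1-3 h) fluorescence at 540/590 nm; IC50 from variable-slope sigmoidal fit.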

[2] = test system: phosphorylation of RSK1(S380) (the downstream target of ERK1/2); assay: Phospho-RSK1(S380) ELISA assay in HT-29 cells; details: Homo sapiens, HT-29, HT29 cells, phospho-RSK1(S380); read-out: Mechanistic Cell Assay RSK1 Phos HT29 IC50
How it was run: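 HT-29 colorectal carcinoma cells (B-RafV600E), plated overnight at 37° C./5% CO2, were treated with compound dilutions for 2 h. Lysates were analysed by phospho-RSK1(Ser380) sandwich ELISA with absorbance at 450 nm. IC50 came from a sigmoidal variable-slope dose-response fit.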

[3] = test system: HT-29 (colorectal carcinoma, B-RafV600E) cells; assay: Cell proliferation (Alamar Blue) assay, HT-29; details: Homo sapiens, HT-29, HT29 cells
How it was run: as §1

SMILES | IC50 [1] | IC50 [2] | IC50 [3]
O=C(NC(CO)c1cccc(Cl)c1)c1ccn(-c2cc(Nc3ccccc3)ncc2Cl)c1 (stereo not drawn) [Example 124, 1-(5-chloro-2-(phenyl-amino)pyridin-4-yl)-N-(1-(3-chlorophenyl)-2-hydroxy-ethyl)-1H-pyrrole-3-carboxamide] | > 2500 nM | 500 to 2500 nM | 500 to 2500 nM
CCC(COC)Nc1ncc(C)c(-n2ccc(C(=O)NC(CO)c3cccc(Cl)c3)c2)n1 (stereo not drawn) [Example 127, N-(1-(3-chloro-phenyl)-2-hydroxy-ethyl)-1-(2-((1-methoxy-butan-2-yl)amino)-5-methyl-pyrimidin-4-yl)-1H-pyrrole-3-carboxamide] | > 2500 nM | 500 to 2500 nM | > 2500 nM
Cc1cnc(NC2CCOC2)nc1-n1ccc(C(=O)NC(CO)c2ccccc2)c1 (stereo not drawn) [Example 128, N-(2-hydroxy-1-phenylethyl)-1-(5-methyl-2-((tetrahydro-furan-3-yl)amino)pyrimidin-4-yl)-1H-pyrrole-3-carboxamide] | > 2500 nM | 500 to 2500 nM | 500 to 2500 nM
COc1cnc(Nc2ccc(F)cc2Cl)nc1-n1ccc(C(=O)NC(CO)c2ccccc2)c1 (stereo not drawn) [Example 129, 1-(2-((2-chloro-4-fluorophenyl)amino)-5-methoxy-pyrimidin-4-yl)-N-(2-hydroxy-1-phenylethyl)-1H-pyrrole-3-carboxamide] | > 2500 nM | 500 to 2500 nM | > 2500 nM
CCNc1ncc(C)c(-n2ccc(C(=O)NC(CO)c3ccccc3)c2)n1 (stereo not drawn) [Example 130, 1-(2-(ethyl-amino)-5-methyl-pyrimidin-4-yl)-N-(2-hydroxy-1-phenylethyl)-1H-pyrrole-3-carboxamide] | > 2500 nM | 500 to 2500 nM | > 2500 nM
Cc1cnc(NC2CCCOC2)nc1-n1ccc(C(=O)NC(CO)c2ccccc2)c1 (stereo not drawn) [Example 141, N-(2-hydroxy-1-phenylethyl)-1-(5-methyl-2-((tetrahydro-2H-pyran-3-yl)amino)-pyrimidin-4-yl)-1H-pyrrole-3-carboxamide] | > 2500 nM | > 2500 nM | > 2500 nM
CC[C@@H](CO)Nc1ncc(C)c(-n2ccc(C(=O)NC(CO)c3cccc(Cl)c3)c2)n1 (stereo partly drawn) [Example 146, N-(1-(3-chloro-phenyl)-2-hydroxy-ethyl)-1-(2-(((S)-1-hydroxy-butan-2-yl)amino)-5-methyl-pyrimidin-4-yl)-1H-pyrrole-3-carboxamide] | 500 to 2500 nM | 100 to 250 nM | 500 to 2500 nM
Cc1cnc(NC(CO)CO)nc1-n1ccc(C(=O)NC(CO)c2ccccc2)c1 (stereo not drawn) [Example 147, 1-(2-((1,3-dihydroxy-propan-2-yl)amino)-5-methyl-pyrimidin-4-yl)-N-(2-hydroxy-1-phenylethyl)-1H-pyrrole-3-carboxamide] | > 2500 nM | > 2500 nM | > 2500 nM
COc1ccc(Nc2ncc(C)c(-n3ccc(C(=O)NC(CO)c4ccccc4)c3)n2)cc1OCCN1CCN(C)CC1 (stereo not drawn) [Example 148, N-(2-hydroxy-1-phenylethyl)-1-(2-((4-methoxy-3-(2-(4-methyl-piperazin-1-yl)ethoxy)-phenyl)amino)-5-methyl-pyrimidin-4-yl)-1H-pyrrole-3-carboxamide] | 500 to 2500 nM | 500 to 2500 nM | 500 to 2500 nM
Cc1cnc(Nc2ccc(F)cc2Cl)nc1-n1ccc(C(=O)NC(COC(=O)C(N)CC(C)C)c2ccccc2)c1 (stereo not drawn) [Example 150, 2-(1-(2-((2-chloro-4-fluorophenyl)-amino)-5-methyl-pyrimidin-4-yl)-1H-pyrrole-3-carboxamido)-2-phenylethyl 2-amino-4-methyl-pentanoate] | > 2500 nM | 500 to 2500 nM | > 2500 nM
Cc1cnc(NC2CCOC2)nc1-n1ccc(C(=O)N[C@H](CO)c2cccc(Cl)c2)c1 (stereo partly drawn) [Example 151, N-((S)-1-(3-chlorophenyl)-2-hydroxy-ethyl)-1-(5-methyl-2-((tetrahydro-furan-3-yl)amino)pyrimidin-4-yl)-1H-pyrrole-3-carboxamide] | 500 to 2500 nM | 100 to 250 nM | ≤ 100 nM

Second part, the compound after the results:

IC50 [1] | IC50 [2] | IC50 [3] | SMILES
500 to 2500 nM | 250 to 500 nM | 100 to 250 nM | Cc1cnc(Nc2ccc(F)cc2)nc1-n1cnc(C(=O)NC(CO)c2ccccc2)c1 (stereo not drawn) [Example 118, 1-(2-((4-fluoro-phenyl)amino)-5-methyl-pyrimidin-4-yl)-N-(2-hydroxy-1-phenylethyl)-1H-imidazole-4-carboxamide]
250 to 500 nM | 250 to 500 nM | 250 to 500 nM | COc1cc(Nc2ncc(C)c(-n3ccc(C(=O)NC(CO)c4ccccc4)c3)n2)cc(OC)c1OC (stereo not drawn) [Example 121, N-(2-hydroxy-1-phenylethyl)-1-(5-methyl-2-((3,4,5-trimethoxy-phenyl)amino)pyrimidin-4-yl)-1H-pyrrole-3-carboxamide]
500 to 2500 nM | 100 to 250 nM | 250 to 500 nM | Cc1cnc(NC2CCOC2)nc1-n1ccc(C(=O)NC(CO)c2cccc(Cl)c2)c1 (stereo not drawn) [Example 123, N-(1-(3-chlorophenyl)-2-hydroxy-ethyl)-1-(5-methyl-2-((tetrahydro-furan-3-yl)amino)pyrimidin-4-yl)-1H-pyrrole-3-carboxamide]
250 to 500 nM | 100 to 250 nM | 250 to 500 nM | Cc1cnc(Nc2ccc(F)cc2)nc1-n1ccc(C(=O)N[C@H](CO)c2ccc(F)c(Cl)c2)c1 [Example 125, (S)-N-(1-(3-chloro-4-fluorophenyl)-2-hydroxy-ethyl)-1-(2-((4-fluoro-phenyl)-amino)-5-methyl-pyrimidin-4-yl)-1H-pyrrole-3-carboxamide]
≤ 100 nM | 100 to 250 nM | 100 to 250 nM | COc1cc(Nc2ncc(C)c(-n3ccc(C(=O)N[C@H](CO)c4ccc(F)c(Cl)c4)c3)n2)cc(OC)c1OC [Example 126, (S)-N-(1-(3-chloro-4-fluorophenyl)-2-hydroxy-ethyl)-1-(5-methyl-2-((3,4,5-trimethoxy-phenyl)amino)pyrimidin-4-yl)-1H-pyrrole-3-carboxamide]
250 to 500 nM | 250 to 500 nM | 250 to 500 nM | Cc1cnc(Nc2ccc3c(c2)OCCO3)nc1-n1ccc(C(=O)NC(CO)c2ccccc2)c1 (stereo not drawn) [Example 131, 1-(2-((2,3-dihydro-benzo[b][1,4]dioxin-6-yl)-amino)-5-methyl-pyrimidin-4-yl)-N-(2-hydroxy-1-phenylethyl)-1H-pyrrole-3-carboxamide]
500 to 2500 nM | 500 to 2500 nM | 500 to 2500 nM | Cc1cnc(Nc2ccc3occc3c2)nc1-n1cnc(C(=O)NC(CO)c2cccc(Cl)c2)c1 (stereo not drawn) [Example 132, 1-(2-(benzo-furan-5-ylamino)-5-methyl-pyrimidin-4-yl)-N-(1-(3-chlorophenyl)-2-hydroxy-ethyl)-1H-imidazole-4-carboxamide]
500 to 2500 nM | 250 to 500 nM | 250 to 500 nM | CC[C@@H](CO)Nc1ncc(C)c(-n2ccc(C(=O)N[C@H](CO)c3ccc(F)c(Cl)c3)c2)n1 [Example 133, N-((S)-1-(3-chloro-4-fluorophenyl)-2-hydroxy-ethyl)-1-(2-(((S)-1-hydroxy-butan-2-yl)amino)-5-methyl-pyrimidin-4-yl)-1H-pyrrole-3-carboxamide]
100 to 250 nM | 100 to 250 nM | 250 to 500 nM | Cc1cnc(Nc2ccc3c(c2)CCO3)nc1-n1ccc(C(=O)NC(CO)c2cccc(Cl)c2)c1 (stereo not drawn) [Example 137, N-(1-(3-chloro-phenyl)-2-hydroxy-ethyl)-1-(2-((2,3-dihydro-benzofuran-5-yl)-mino)-5-methyl-pyrimidin-4-yl)-1H-pyrrole-3-carboxamide]
100 to 250 nM | 100 to 250 nM | 100 to 250 nM | Cc1cnc(Nc2ccc3c(c2)CCO3)nc1-n1ccc(C(=O)NC(CO)c2ccccc2)c1 (stereo not drawn) [Example 138, 1-(2-((2,3-dihydro-benzofuran-5-yl)amino)-5-methyl-pyrimidin-4-yl)-N-(2-hydroxy-1-phenylethyl)-1H-pyrrole-3-carboxamide]
100 to 250 nM | ≤ 100 nM | 250 to 500 nM | Cc1cnc(Nc2ccc3c(c2)OCCO3)nc1-n1ccc(C(=O)NC(CO)c2cccc(Cl)c2)c1 (stereo not drawn) [Example 139, N-(1-(3-chloro-phenyl)-2-hydroxy-ethyl)-1-(2-((2,3-dihydro-benzo[b][1,4]dioxin-6-yl)amino)-5-methyl-pyrimidin-4-yl)-1H-pyrrole-3-carboxamide]
500 to 2500 nM | > 2500 nM | 500 to 2500 nM | Cc1cnc(Nc2ccc3[nH]ncc3c2)nc1-n1ccc(C(=O)NC(CO)c2ccccc2)c1 (stereo not drawn) [Example 140, 1-(2-((1H-indazol-5-yl)amino)-5-methyl-pyrimidin-4-yl)-N-(2-hydroxy-1-phenylethyl)-1H-pyrrole-3-carboxamide]
500 to 2500 nM | 250 to 500 nM | 500 to 2500 nM | COc1cc(F)ccc1Nc1ncc(C)c(-n2ccc(C(=O)NC(CO)c3cccc(Cl)c3)c2)n1 (stereo not drawn) [Example 142, N-(1-(3-chloro-phenyl)-2-hydroxy-ethyl)-1-(2-((4-fluoro-2-methoxy-phenyl)amino)-5-methyl-pyrimidin-4-yl)-1H-pyrrole-3-carboxamide]
250 to 500 nM | 250 to 500 nM | 500 to 2500 nM | COc1c(F)cccc1Nc1ncc(C)c(-n2ccc(C(=O)NC(CO)c3cccc(Cl)c3)c2)n1 (stereo not drawn) [Example 143, N-(1-(3-chloro-phenyl)-2-hydroxy-ethyl)-1-(2-((3-fluoro-2-methoxy-phenyl)amino)-5-methyl-pyrimidin-4-yl)-1H-pyrrole-3-carboxamide]
